Measurements taken from US12551429B2, “Oral care complexes and compositions” (Colgate-Palmolive Company, priority 2021, dated 2026).

Assays:
[1] = Surface roughness change (% R) of etched human enamel, 3D laser scanning confocal microscope; settings: Example 2, % R=(Rt−Re)/(Re)×100, four days of treatment, negative = smoother
Excerpt: Human molar teeth are obtained, and the root portion of the molar is removed. The crown of the molar is cut longitudinally into slices 2 mm thick using a water-cooled low-speed diamond saw. The human enamel samples are then mounted in acrylic resin. The embedded samples are grinded and polished with a sequential series of wet 400 to 4000 grit silicon carbide papers and nylon adhesive backed discs with 0.25 micron diamond or colloidal silica coating. The polished slices are rinsed thoroughly with distilled water three times, sonicated in a water bath for five minutes, then rinsed again and allowed to air dry.
(§1) Etched enamel samples are prepared by treatment with 1% aqueous citric acid (pH 3.6) for 10 minutes, followed by rinsing with deionized water.
Etched human enamel samples are treated with 50 microliters of polyelectrolyte solutions A-F, or with control solutions, for ten minutes at room temperature. […]
In addition, surface roughness and morphology are evaluated using a 3D laser scanning confocal microscope. […] Roughness is therefore measured in units of micrometers. Values for roughness of the acid etched enamel sample (Re) and for the acid-etched enamel sample after treatment (Rt) are determined. Percentage of roughness (% R) is calculated as follows: % R=(Rt−Re)/(Re)×100

[2] = Knoop hardness repair (% HR) of acid-etched human enamel after treatment and remineralization
Description: KHN is determined using the Knoop microhardness tester. A baseline measurement is taken on a sound enamel sample without treatment (KHN0), on an acid-etched enamel sample (KHNe), and on an acid-etched enamel sample after treatment (KHNt). Each KHN measurement is the average of 5 indentations made on the same specimen at a force of 0.05 kg for 15 seconds. A value for Percentage of Hardness Repair (% HR) is calculated according to the following formula: % HR=(KHNt−KHNe)/(KHN0−KHNe)×100
Etched enamel samples are prepared by treatment with 1% aqueous citric acid (pH 3.6) for 10 minutes, followed by rinsing with deionized water. […]

[3] = Scanning electron microscopy of enamel surface; settings: Example 5; bovine enamel blocks
Description: (§2) The left half of the block (“sound”) is covered using an acid-resistant nail polish, which is then allowed to air dry. The right half of the block (“damaged” and “repaired”) is then treated with 1% citric acid (pH 3.6) for ten minutes to etch the surface. After the treatment, the surface of the block is rinsed with deionized water. The top right corner of the block (“damaged”) is then covered with the same acid-resistant nail polish and air dried. The test formulation is then applied to the bottom right corner of the block (“repaired”), for example, for a ten-minute treatment, followed by rinsing with deionized water. Following the treatment, the enamel blocks are immersed in a Remineralization Solution (0.2205 g/L CaCl2·2H2O, 0.1225 g/L KH2PO4, 9.6915 g/L KCl and 4.766 g/L HEPEs buffer, pH adjusted to 7 with NaOH) overnight at 37° C., and the process repeated for 2-4 days (the blocks immersed daily in fresh remineralization solution). Following this, the blocks are removed, rinsed with deionized water and air dried. The nail polish covers are then removed using acetone solvent, and the surface of the enamel blocks is visualized, for example, by light microscopy, confocal laser scanning microscopy, scanning probe microscopy, or scanning electron microscopy. […]
(§3) Enamel repair is also evaluated using the method described in Example 4. […]

[4] = Knoop hardness repair (% HR) of acid-etched bovine enamel after treatment and remineralization; settings: for % HR (Percentage Hardness Repair): bovine enamel, 40 microliters
Description: Bovine enamel blocks are obtained from sound bovine incisors without defects. The labial surface of the bovine teeth is cut to provide enamel specimens of about 3×3×2 mm in size. The enamel layer is about 1 mm thick and the dentin left in the specimen is about 1 mm thick.
as §1
Etched bovine enamel samples are treated with 50 microliters of polyelectrolyte solutions A-F, or with sodium fluoride solution or water, for ten minutes at room temperature. The samples are then rinsed with deionized water and then they are immersed in 50 mL of Remineralization Solution (0.2205 g/L CaCl2·2H2O, 0.1225 g/L KH2PO4, 9.6915 g/L KCl and 4.766 g/L HEPEs buffer, pH adjusted to 7 with NaOH) overnight at 37° C. The enamel samples are then rinsed with deionized water for 50 seconds and then air dried.
Knoop Hardness (KHN) is a measure of hardness of a material calculated by measuring the indentation produced by a diamond tip that is pressed onto the surface of a sample. Using a calibrated microscope, the area of the impression can be determined, and from the area of the indentation (D) in […], and the applied load (F) in kilograms force, the Knoop Hardness is calculated as: KHN=14.229(F/D^2). Knoop hardness has units of kgf/mm^2.
KHN is determined using the Knoop microhardness tester. […] A value for Percentage of Hardness Repair (% HR) is calculated according to the following formula: % HR=(KHNt−KHNe)/(KHN0−KHNe)×100
Bovine and human enamel blocks are prepared and treated with polyelectrolyte test solutions as described in Examples 1 and 2, respectively, except that 40 microliters of the polyelectrolyte solution are applied to the etched enamel surface, instead of 50 microliters. Koop Hardness (KHN) and Percentage Hardness Repair (% HR) are determined as described in Examples 1 and 2. […]

[5] = Step height repair of etched bovine enamel blocks (sound/damaged/repaired method, Keyence microscope)
Description: as §2, §3

[6] = Gloss recovery (% GR) of acid-etched enamel, Novo-Curve glossmeter; design: species or system bovine; settings: Example 5
Description: Enamel repair is also evaluated using the method described in Example 4. A Keyence microscope is used to capture the surface morphology and to measure the step height of the treated samples. A Phenom ProX Desktop scanning electron microscope is used to observe the repaired enamel crystals. Bovine enable blocks are treated with either water, the sodium fluoride solution, or the 10 mg/mL ePL+0.06 mg/mL malic acid solution (Solution E above).
The effect of treatments on enamel appearance is also investigated by measuring the surface gloss and observing the surface under a microscope. The gloss values are measured using a Novo-Curve glossmeter. A glossmeter provides a quantifiable way of measuring gloss intensity, and the measurement relates to the amount of reflected light from a black glass standard with a defined refractive index. The ratio of reflected light for a test specimen, compared to the ratio for the gloss standard, is recorded as gloss units (GU). A gloss measurement of >70 GU is considered high gloss, while medium gloss is 10-70 GU, and low gloss is <10 GU.
A baseline measurement is taken on a sound enamel sample without treatment (G0), on an acid-etched enamel sample (Ge), and on an acid-etched enamel sample after treatment (Gt). The percentage of gloss recovery (% GR) is calculated according to the following formula: % GR=(Gt−Ge)/(G0−Ge)×100.

[7] = Light microscopy of enamel surface morphology (sound/damaged/repaired method); settings: Example 5; bovine enamel blocks
Description: as §2, §3

Structure (SMILES)	% R (Percentage of roughness) [1] [%]	% HR (Percentage of Hardness Repair) ([2]; Example 2, 50 microliters for ten minutes, overnight remineralization, repeated daily for four days) [%]	repair of gaps or cracks in the enamel surface by scanning electron microscopy [3]	% HR (Percentage Hardness Repair) ([2]; Example 3, 40 microliters, solutions pH 7.0, 4 days of treatments) [%]	% HR (Percentage of Hardness Repair) ([4]; Example 1, bovine enamel etched with 1% citric acid, 50 microliters for ten minutes, Remineralization Solution overnight at 37° C.) [%]	% HR (Percentage Hardness Repair) ([4]; Example 3, solutions pH 7.0) [%]	% HR (Percentage Hardness Repair) ([4]; Example 5, solutions about pH 6.0, 1 day of treatment) [%]	restoration of enamel height in 3-D Keyence photomicrographs (FIG. 3) ([5]; Example 5)	% Repair (Step height) ([5]; Example 5, calculated from change in step height) [%]	% GR (percentage of gloss recovery) ([6]; 2 days of remineralization) [%]	surface gloss recovery, in words ([6]; after 2 days of remineralization)	surface morphology of the repaired side under the microscope (FIG. 2) [7]
O=C(O)CC(O)C(=O)O (stereo not drawn) [Malic acid, malic acid]	−1.6	19.8	–	–	–	–	–	–	–	–	–	–
[F-].[Na+] [NaF, sodium fluoride]	–	–	some healing	49.3	27.9	35.9	41.0	do not restore the enamel to the original height	65.3	12.7	slightly better than water treatment	a clear interface between “damaged” and “repaired” sides is observed
